Experimental data as given in patent US20130116263A1, “PAK INHIBITORS FOR THE TREATMENT OF CELL PROLIFERATIVE DISORDERS” (AFRAXIS, INC., priority 2011, published 2013).
pIC50: −log10 of the molar value.

Experiments:
Format in all cases: biochemical
PAK1 = PAK1 (Homo sapiens, UniProt Q13153); assay: In vitro PAK inhibition assay (Z'-LYTE, SelectScreen), PAK1; conditions: read-out: PAK1 IC50
Procedure: (§1) Compounds are screened in 1% DMSO (final) in the well. For 10 point titrations, 3-fold serial dilutions are conducted. All Peptide/Kinase Mixtures are diluted to a 2× working concentration in the appropriate Kinase Buffer
The 2×PAK1/Ser/Thr 19 mixture is prepared in 50 mM HEPES pH 7.5, 0.01% BRIJ-35, 10 mM MgCl2, 1 mM EGTA.
(§2) 1. Add the following solutions to a well in a 384-well plate: • 2.5 μL of 4× Test Compound OR (100 nL 100× Test Compound plus 2.4 μL kinase buffer) • 5 μL of 2× Peptide/Kinase (PAK) Mixture • 2.5 μL of 4×ATP Solution
(§3) 3. Incubate the PAK Kinase Reaction at room temperature for 60-minutes
(§4) 4. Add 5 μL of Development Reagent Solution to each well
(§5) 6. Incubate the Development Reaction for 60-minutes
(§6) 7. Determine the fluorescence using a fluorescence plate reader
(§7) SelectScreen® Kinase Profiling Service uses XLfit from IDBS.
(§8) The representative IC50 value with a known inhibitor for each kinase was determined at the ATP bin nearest to the ATP Km app.

PAK2 (PAK65) = PAK2 (PAK65) (Homo sapiens, UniProt Q13177); assay: In vitro PAK inhibition assay (Z'-LYTE, SelectScreen), PAK2; conditions: read-out: PAK2 IC50
Procedure: as §1
The 2×PAK2 (PAK65)/Ser/Thr 20 mixture is prepared in 50 mM HEPES pH 7.5, 0.01% BRIJ-35, 10 mM MgCl2, 1 mM EGTA. The final 10 μL Kinase Reaction consists of 0.29-6 ng PAK2 (PAK65) and 2 μM Ser/Thr 20 in 50 mM HEPES pH 7.5, 0.01% BRIJ-35, 10 mM MgCl2, 1 mM EGTA.
as §2, §3, §4, §5, §6, §7, §8

PAK3 = PAK3 (Homo sapiens, UniProt O75914); assay: In vitro PAK inhibition assay (Z'-LYTE, SelectScreen), PAK3; conditions: read-out: PAK3 IC50
Procedure: as §1
The 2×PAK3/Ser/Thr 20 mixture is prepared in 50 mM HEPES pH 7.5, 0.01% BRIJ-35, 10 mM MgCl2, 1 mM EGTA.
as §2, §3, §4, §5, §6, §7, §8

PAK4 = PAK4 (Homo sapiens, UniProt O96013); assay: In vitro PAK inhibition assay (Z'-LYTE, SelectScreen), PAK4
Procedure: as §1
The 2×PAK-4/Ser/Thr 20 mixture is prepared in 50 mM HEPES pH 7.5, 0.01% BRIJ-35, 10 mM MgCl2, 1 mM EGTA. The final 10 μL Kinase Reaction consists of 0.1-0.75 ng PAK-4 and 2 μM Ser/Thr 20 in 50 mM HEPES pH 7.5, 0.01% BRIJ-35, 10 mM MgCl2, 1 mM EGTA. After the 1 hour Kinase Reaction incubation, 5 μL of a 1:256 dilution of Development Reagent A is added.
as §2, §3, §4, §5, §6
SelectScreen® Kinase Profiling Service uses XLfit from IDBS. The dose response curve is curve fit to model number 205 (sigmoidal dose-response model).
The table below provides specifications and data around each kinase. The representative IC50 value with a known inhibitor for each kinase was determined at the ATP bin nearest to the ATP Km app.

Sequence of PAK4 (O96013 whole entry): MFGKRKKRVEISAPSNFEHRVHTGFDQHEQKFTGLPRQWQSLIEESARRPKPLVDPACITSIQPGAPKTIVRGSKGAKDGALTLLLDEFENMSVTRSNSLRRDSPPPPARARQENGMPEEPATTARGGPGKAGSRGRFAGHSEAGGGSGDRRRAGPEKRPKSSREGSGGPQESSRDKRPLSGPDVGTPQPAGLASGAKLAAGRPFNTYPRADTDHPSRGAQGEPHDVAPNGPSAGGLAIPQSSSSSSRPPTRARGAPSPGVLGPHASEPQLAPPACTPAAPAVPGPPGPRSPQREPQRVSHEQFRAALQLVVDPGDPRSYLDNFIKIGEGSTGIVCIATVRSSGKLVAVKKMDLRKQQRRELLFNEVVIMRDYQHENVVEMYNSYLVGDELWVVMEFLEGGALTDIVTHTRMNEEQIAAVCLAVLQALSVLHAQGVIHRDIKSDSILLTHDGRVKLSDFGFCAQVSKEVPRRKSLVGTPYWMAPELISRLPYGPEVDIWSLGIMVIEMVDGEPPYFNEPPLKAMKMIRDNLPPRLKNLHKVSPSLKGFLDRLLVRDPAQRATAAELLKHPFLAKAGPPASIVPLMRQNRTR
Sequence of PAK2 (PAK65) (Q13177 whole entry): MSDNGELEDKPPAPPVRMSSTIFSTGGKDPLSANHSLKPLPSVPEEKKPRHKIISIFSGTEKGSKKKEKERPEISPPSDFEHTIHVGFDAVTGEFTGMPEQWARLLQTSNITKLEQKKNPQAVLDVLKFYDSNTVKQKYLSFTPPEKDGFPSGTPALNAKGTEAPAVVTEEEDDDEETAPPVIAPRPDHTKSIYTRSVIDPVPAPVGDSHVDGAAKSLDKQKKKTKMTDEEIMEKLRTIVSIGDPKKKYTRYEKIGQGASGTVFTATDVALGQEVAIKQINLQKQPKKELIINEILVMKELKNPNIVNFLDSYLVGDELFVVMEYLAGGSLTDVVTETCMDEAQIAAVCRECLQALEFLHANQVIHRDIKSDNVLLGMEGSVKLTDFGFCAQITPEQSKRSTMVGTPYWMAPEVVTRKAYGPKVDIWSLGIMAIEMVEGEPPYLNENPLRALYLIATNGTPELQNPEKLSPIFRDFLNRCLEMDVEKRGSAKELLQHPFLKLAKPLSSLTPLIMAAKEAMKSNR
Sequence of PAK3 (O75914 1-544 isoform O75914-2): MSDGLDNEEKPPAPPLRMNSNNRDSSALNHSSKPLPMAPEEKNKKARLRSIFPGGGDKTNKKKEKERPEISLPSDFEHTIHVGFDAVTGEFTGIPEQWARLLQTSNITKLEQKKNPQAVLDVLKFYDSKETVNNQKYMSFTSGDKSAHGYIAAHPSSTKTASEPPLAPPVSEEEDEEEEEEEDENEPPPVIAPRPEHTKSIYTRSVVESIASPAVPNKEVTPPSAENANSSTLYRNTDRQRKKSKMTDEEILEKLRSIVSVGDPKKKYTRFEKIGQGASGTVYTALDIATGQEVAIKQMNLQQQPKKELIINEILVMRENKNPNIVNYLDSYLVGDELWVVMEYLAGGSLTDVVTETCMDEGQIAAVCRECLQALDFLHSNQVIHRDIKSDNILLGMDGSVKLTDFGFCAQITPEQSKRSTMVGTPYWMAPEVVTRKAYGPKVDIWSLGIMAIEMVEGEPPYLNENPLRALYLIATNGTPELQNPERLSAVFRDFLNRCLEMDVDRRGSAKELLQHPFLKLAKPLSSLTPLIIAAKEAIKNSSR
Sequence of PAK1 (Q13153 whole entry): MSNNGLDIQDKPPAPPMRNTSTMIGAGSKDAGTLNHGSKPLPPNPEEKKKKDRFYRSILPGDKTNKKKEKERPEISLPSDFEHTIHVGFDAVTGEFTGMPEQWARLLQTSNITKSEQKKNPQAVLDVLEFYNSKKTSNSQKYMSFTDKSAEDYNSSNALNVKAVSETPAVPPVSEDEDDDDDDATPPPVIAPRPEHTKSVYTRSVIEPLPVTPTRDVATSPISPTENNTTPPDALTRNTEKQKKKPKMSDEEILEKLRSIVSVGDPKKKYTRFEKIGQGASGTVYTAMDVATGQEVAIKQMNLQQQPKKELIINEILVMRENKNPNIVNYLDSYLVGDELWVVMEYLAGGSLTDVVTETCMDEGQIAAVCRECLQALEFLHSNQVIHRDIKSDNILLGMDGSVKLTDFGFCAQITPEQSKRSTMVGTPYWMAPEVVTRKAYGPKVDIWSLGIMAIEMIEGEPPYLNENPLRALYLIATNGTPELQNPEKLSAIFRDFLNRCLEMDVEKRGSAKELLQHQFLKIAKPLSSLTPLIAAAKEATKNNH

Compound	pIC50 (PAK1)	pIC50 (PAK2 (PAK65))	pIC50 (PAK3)	pIC50 (PAK4)
CCn1c(=O)c(-c2ccc(-c3cncc(C)n3)cc2Cl)cc2cnc(NC3CCOC(C)(C)C3)nc21 (stereo not drawn) [Example 31]	6.30 to 7.30	6.30 to 7.30	6.30 to 7.30	< 5.30
CCn1c(=O)c(-c2ccc(-c3cccnc3F)cc2Cl)cc2cnc(N[C@H]3CCOC3)nc21 [Example 41]	> 7.30	6.30 to 7.30	6.30 to 7.30	< 5.30
Cc1nccnc1-c1ccc(-c2cc3cnc(N[C@@H]4CCOC4)nc3n(Cc3ccccn3)c2=O)c(Cl)c1 [Example 123]	6.30 to 7.30	> 7.30	6.30 to 7.30	< 5.30
Cc1cncc(-c2ccc(-c3cc4cnc(NC5CCOCC5)nc4n(Cc4ccccc4)c3=O)c(Cl)c2)n1 [Example 34]	6.30 to 7.30	> 7.30	6.30 to 7.30	< 5.30
CCn1c(=O)c(-c2ccc(-c3nccnc3C)cc2Cl)cc2cnc(NC3CCN(C)C3)nc21 (stereo not drawn) [Example 78, 6-(2-chloro-4-(3-methylpyrazin-2-yl)phenyl)-8-ethyl-2-((1-methylpyrrolidin-3-yl)amino)pyrido[2,3-d]pyrimidin-7(8H)-one]	6.30 to 7.30	6.30 to 7.30	5.30 to 6.30	< 5.30
CCn1c(=O)c(-c2ccc(-c3cncc(C)n3)cc2Cl)cc2cnc(N[C@H]3CCCNC3=O)nc21 [Example 69]	< 5.30	< 5.30	< 5.30	< 5.30
Cc1cncc(-c2ccc(-c3cc4cnc(N[C@@H]5CCOC5)nc4n(CCCN(C)C)c3=O)c(Cl)c2)n1 [Example 101]	> 7.30	> 7.30	6.30 to 7.30	< 5.30
Cc1nccnc1-c1ccc(-c2cc3cnc(NC4CCOCC4)nc3[nH]c2=O)c(Cl)c1 [Example 10]	6.30 to 7.30	6.30 to 7.30	5.30 to 6.30	< 5.30
CCn1c(=O)c(-c2ccc(-c3nccnc3C)cc2Cl)cc2cnc(NC3CCOCC3)nc21 [Example 2]	6.30 to 7.30	6.30 to 7.30	6.30 to 7.30	< 5.30
Cc1cncc(-c2ccc(-c3cc4cnc(N[C@H]5CCOC5)nc4n(CCN)c3=O)c(Cl)c2)n1 [Example 100]	6.30 to 7.30	> 7.30	6.30 to 7.30	< 5.30
Cc1cncc(-c2ccc(-c3cc4cnc(N[C@H]5CCOC5)nc4n(CCCN)c3=O)c(Cl)c2)n1 [Example 98]	> 7.30	> 7.30	> 7.30	< 5.30
CCn1c(=O)c(-c2ccc(-c3ccnc(C)n3)cc2Cl)cc2cnc(NC3CCOCC3)nc21 [Example 8]	6.30 to 7.30	6.30 to 7.30	6.30 to 7.30	< 5.30
CCn1c(=O)c(-c2ccc(-c3nccnc3C)cc2Cl)cc2cnc(NC3CCOC(C)C3)nc21 (stereo not drawn) [Example 32]	6.30 to 7.30	> 7.30	6.30 to 7.30	< 5.30
CCn1c(=O)c(-c2ccc(-c3cccnc3OC)cc2Cl)cc2cnc(NC3CCOCC3)nc21 [Example 52]	5.30 to 6.30	< 5.30	< 5.30	< 5.30
CCn1c(=O)c(-c2ccc(-c3cncc(C)n3)cc2Cl)cc2cnc(NCCCOCCCN)nc21 [Example 129]	> 7.30	> 7.30	6.30 to 7.30	< 5.30
Cc1nccnc1-c1ccc(-c2cc3cnc(NC4CCOCC4)nc3n(C3CCCC3)c2=O)c(Cl)c1 [Example 88, 6-(2-chloro-4-(3-methylpyrazin-2-yl)phenyl)-8-cyclopentyl-2-((tetrahydro-2H-pyran-4-yl)amino)pyrido[2,3-d]pyrimidin-7(8H)-one]	6.30 to 7.30	6.30 to 7.30	6.30 to 7.30	< 5.30
CCn1c(=O)c(-c2ccc(-c3nccnc3C)cc2Cl)cc2cnc(N[C@H]3CCOC(C)(C)C3)nc21 (stereo in doubt) [Example 77]	> 7.30	> 7.30	6.30 to 7.30	< 5.30
Cc1cncc(-c2ccc(-c3cc4cnc(N[C@H]5CCOC5)nc4n(CCCN(C)C)c3=O)c(Cl)c2)n1 [Example 102]	> 7.30	> 7.30	6.30 to 7.30	< 5.30
